Measurements from PubChem BioAssay (NCI).
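Values below derive from 48-hour exposures of cells grown in 96-well plates, with endpoints linearly interpolated between the two concentrations bracketing the appropriate inhibition level. The concentration for full growth arrest is given as TGI.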 Where a SMILES comes first, the peptide text is derived from it. The star is where a group is joined. Cbz = O=C(OCc1ccccc1)*

Columns and labels:
Test in all cases: inhibition of tumour cell growth, NCI panel, 48 h
ACHN renal = tested on: ACHN renal
CCRF-CEM leukemia = tested on: CCRF-CEM leukemia
U251 CNS = tested on: U251 CNS
A549 NSCLC = tested on: A549 NSCLC
BT-549 breast = tested on: BT-549 breast
MOLT-4 leukemia = tested on: MOLT-4 leukemia
T-47D breast = tested on: T-47D breast
PC-3 prostate = tested on: PC-3 prostate
SF-295 CNS = tested on: SF-295 CNS
HCT-116 colon = tested on: HCT-116 colon
SF-539 CNS = tested on: SF-539 CNS
OVCAR-3 ovarian = tested on: OVCAR-3 ovarian
OVCAR-5 ovarian = tested on: OVCAR-5 ovarian
OVCAR-8 ovarian = tested on: OVCAR-8 ovarian
HCC-2998 colon = tested on: HCC-2998 colon

Row | SMILES | TGI (ACHN renal) | TGI (CCRF-CEM leukemia) | TGI (U251 CNS) | TGI (A549 NSCLC) | TGI (BT-549 breast) | TGI (MOLT-4 leukemia) | TGI (T-47D breast) | TGI (PC-3 prostate) | TGI (SF-295 CNS) | TGI (HCT-116 colon) | TGI (SF-539 CNS) | TGI (OVCAR-3 ovarian) | TGI (OVCAR-5 ovarian) | TGI (OVCAR-8 ovarian) | TGI (HCC-2998 colon)
1 | CC1(C)CC(=O)c2c(nc3ccc4ccccc4c3c2-c2ccc(NC(=O)CCCCC(=O)Nc3ccc(-c4c5c(nc6ccc7ccccc7c46)CC(C)(C)CC5=O)cc3)cc2)C1 | > 100 µM | > 100 µM | > 100 µM | > 100 µM | > 100 µM | > 100 µM | > 100 µM | > 100 µM | > 100 µM | > 100 µM | > 100 µM | > 100 µM | > 100 µM | > 100 µM | –
2 | C[C@@H]1OC(=O)C[C@H]2CC(=O)N(CCc3cn(S(=O)(=O)C(F)(F)F)c4ccccc34)C[C@@H]21 | > 100 µM | > 100 µM | > 100 µM | > 100 µM | > 100 µM | > 100 µM | > 100 µM | > 100 µM | > 100 µM | > 100 µM | – | > 100 µM | > 100 µM | > 100 µM | > 100 µM
3 | CC(=O)c1cn(-c2ccc(Cl)cc2)c(=O)c2c(N)n[nH]c12 | > 100 µM | > 100 µM | > 100 µM | – | > 100 µM | > 100 µM | > 100 µM | > 100 µM | > 100 µM | > 100 µM | – | – | – | > 100 µM | > 100 µM
4 | O=C1OC(CN2CCN(c3ccccc3)CC2)CN1C(=S)Nc1ccccc1 (centres undefined) | > 100 µM | > 100 µM | > 100 µM | > 100 µM | > 100 µM | > 100 µM | > 100 µM | > 100 µM | > 100 µM | > 100 µM | > 100 µM | > 100 µM | > 100 µM | > 100 µM | > 100 µM
5 | CC(=O)OC[C@@]12C[C@H]3C(=O)C(C)(C)C[C@H]3[C@]1(C)[C@@H](OC(C)=O)[C@]1(O)[C@H]([C@@H](OC(=O)c3ccccc3)[C@@H](C)[C@H]1OC(C)=O)[C@H]2OC(C)=O | > 20 µM | > 20 µM | > 20 µM | – | > 20 µM | > 20 µM | > 20 µM | > 20 µM | > 20 µM | > 20 µM | > 20 µM | > 20 µM | > 20 µM | > 20 µM | > 20 µM
6 | COc1ccc(C)cc1NC(=S)N/N=C/c1ccc(SC)cc1 | > 100 µM | > 100 µM | – | > 100 µM | > 100 µM | > 100 µM | > 100 µM | > 100 µM | > 100 µM | > 100 µM | 89.9 µM | > 100 µM | > 100 µM | > 100 µM | –
7 | O=C(O)CCC1(c2ccccc2)NC(=O)NC1=O (centres undefined) | > 100 µM | > 100 µM | > 100 µM | > 100 µM | > 100 µM | – | > 100 µM | > 100 µM | > 100 µM | > 100 µM | > 100 µM | > 100 µM | > 100 µM | > 100 µM | > 100 µM
8 | N#Cc1c(C#N)c(SSc2c(C#N)c(C#N)c(N)n2-c2ccccc2)n(-c2ccccc2)c1N | 21.4 µM | – | 42.4 µM | > 57.2 µM | 30.7 µM | > 100 µM | 5.29 µM | 46.1 µM | > 58.6 µM | – | > 100 µM | 45.2 µM | > 62.5 µM | > 100 µM | 51 µM
9 | NC(CCCCNc1ccn(C2OC(CO)C(O)C2O)c(=O)n1)C(=O)O (centres undefined) | > 100 µM | > 100 µM | > 100 µM | > 100 µM | > 100 µM | > 100 µM | > 100 µM | > 100 µM | > 100 µM | – | > 100 µM | > 100 µM | > 100 µM | > 100 µM | > 100 µM
10 | CC1(C)CCc2c(c(N=Nc3ccccc3)c3ccccc3c2O)O1 | 33.5 µM | > 100 µM | 61.3 µM | > 100 µM | > 100 µM | > 100 µM | > 100 µM | 71.8 µM | 57.3 µM | 51.2 µM | 69.6 µM | 53.1 µM | > 100 µM | > 100 µM | –
11 | Cc1nc2c(-c3ccccc3)[nH]c(C)c2c(=O)o1 | > 100 µM | > 100 µM | > 100 µM | > 100 µM | > 100 µM | > 100 µM | > 100 µM | > 100 µM | > 100 µM | > 100 µM | > 100 µM | – | > 100 µM | > 100 µM | > 100 µM
12 | CC(C)[Si]1(C(C)C)OCC2OC(n3ccc(=O)[nH]c3=O)C(O)(CO)C2O[Si](C(C)C)(C(C)C)O1 (centres undefined) | 30.8 µM | 30.7 µM | 30.1 µM | 27.9 µM | 30.7 µM | 69.1 µM | 30.2 µM | 25.9 µM | 28.5 µM | 27.7 µM | 32.2 µM | 29.4 µM | 29.5 µM | 29.5 µM | –
13 | CCCc1c2c3ccccc3nc-2nc2ccccn12 | > 100 µM | > 100 µM | > 100 µM | > 100 µM | > 100 µM | > 100 µM | > 100 µM | > 100 µM | > 100 µM | – | > 100 µM | > 100 µM | 88.1 µM | > 100 µM | –
14 | COC/C=C\[C@@]1(O)CCCC[C@@H]1CC(OC)OC | – | > 64.3 µM | > 100 µM | > 100 µM | > 100 µM | 31.4 µM | > 100 µM | > 100 µM | 97.3 µM | > 62.7 µM | > 100 µM | > 100 µM | > 100 µM | > 85.8 µM | > 100 µM
15 | COc1nc(=O)n(C2CC(N=[N+]=[N-])C(CO)O2)cc1C (centres undefined) | > 100 µM | > 100 µM | > 100 µM | > 100 µM | > 100 µM | > 100 µM | > 100 µM | > 100 µM | > 100 µM | > 100 µM | > 100 µM | > 100 µM | > 100 µM | > 100 µM | –
16 | CCOC(=O)C(C)NC(=O)C(C)NC(=O)C(C)NC(=O)C(C)NC(=O)C(C)NC(=O)C(C)NC(=O)C(C)NC(=O)OCc1ccccc1 (centres undefined) (Cbz-AAAAAAA-OEt; configuration not given here) | > 100 µM | – | > 100 µM | > 100 µM | > 100 µM | > 100 µM | > 100 µM | > 100 µM | > 100 µM | > 100 µM | > 100 µM | > 100 µM | > 100 µM | > 100 µM | > 100 µM
